Reference: patent US6958318B2, “Recombinant bacterial cells for delivery of PNP to tumor cells” (The UAB Research Foundation, priority 1993, dated 2005)
Where two headings read alike, the source gives them in different places.

How the values were obtained:
[1] = tested on: wild type murine breast carcinoma cells (16/C cell line); assay: Wild-type 16/C tumors in nude mice; format: in vivo; settings: FIG. 6
Protocol: For studies conducted with nu/nu mice, cells obtained from stable cultures of transduced cell lines were injected subcutaneously into the right or left flank of the mice. Mice with visible tumor growth were used for further studies. For the administration of purine prodrug, mice were administered MeP-dR or F-araAMP by IP injection.
Four to five nude (nu/nu) mice per group were inoculated with wild type murine breast carcinoma cells (16/C cell line), or PNP transduced 16/C cells. Mice with established tumors (approximately 100 mm^3) were treated with MeP-dR (100 mg/kg/d IP×3 d) or F-araAMP (100 mg/kg/IP 3 id×3 d).

E. coli PNP = E. coli PNP (Escherichia coli, UniProt P0ABP8); format: biochemical
Chain of E. coli PNP (P0ABP8 2-239): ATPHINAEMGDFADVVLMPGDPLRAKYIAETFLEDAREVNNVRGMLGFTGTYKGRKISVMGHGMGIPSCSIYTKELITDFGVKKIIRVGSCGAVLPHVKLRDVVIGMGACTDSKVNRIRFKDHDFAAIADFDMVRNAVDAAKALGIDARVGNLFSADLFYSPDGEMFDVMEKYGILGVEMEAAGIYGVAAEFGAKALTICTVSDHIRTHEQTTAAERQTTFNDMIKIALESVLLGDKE

Mel-1 melanoma cells = assay: Killing of Mel-1 cells transfected with Tyr-PNP or SV-PNP; format: cell-based, human; settings: 30 μg/ml, day 6
Excerpt: (§1) To eliminate possible toxicity associated with the non-hydrolyzable cationic lipid component of the LipofectinJ, an alternative liposome transfection vehicle was used in the killing experiments. A liposome vehicle consisting of a 1:1 (weight/weight) mixture of the cationic lipid DOTAP (1,2-dioleoyloxy-3-(trimethylammonium)-propane) and the neutral lipid DOPE (dioleoyl-phosphatidylethanolamine) (Avanti Polar Lipids) display transfection properties similar to LipofectinJ, but with less toxicity (data not shown). DOTAP/DOPE liposomes were prepared by mixing 0.5 mg of DOTAP and 0.5 mg of DOPE and evaporating the chloroform solvent. Following the addition of 500 μl of cyclohexane, the mixture was placed on dry ice and lyophilized. One ml of sterile water was added to the powdered lipids and the solution was vortexed every 5 minutes for 30 minutes. T-84 or Mel-1 cells were seeded at 30% confluency in 24-well plates and allowed to grow overnight. […]
(§2) In cells that received the PNP or control plasmids, the media was changed two days after transfection and MeP-dR (6-methylpurine-deoxyriboside) added to the appropriate wells to a final concentration of 30 μg/ml. […] Two days later (day 6), the cells were washed once with PBS, resuspended, and counted in a 20% solution of trypan blue reagent (Trypan Blue Stain 0.4%, Gibco-BRL, Gaithersburg, Md.) using a hemacytometer. […]

[2] = tested on: T-84 colon carcinoma cells; assay: Toxicity of MeP and MeP-dR in untransfected T-84 cells; format: cell-based, human; settings: 5 days
Protocol: T-84 colon carcinoma cells were grown in Dulbecco's modified Eagle medium containing F12 nutrient medium (DMEM/F12) (GIBCO/BRL, Gaithersburg, Md.) in 6 well trays to a density of approximately […] (−20% confluency).
Untransfected T-84 colon carcinoma cells were treated with increasing concentrations of either MeP-dR or MeP. After 5 days the cells were removed from each well and the number of dye excluding cells were determined with the aid of a hemacytometer. Cells were studied both at passage 48 (p. 48) and passage 61 (p. 61). MeP was obtained from Sigma Chemical Company (St. Louis, Mo.). MeP-dR was synthesized by standard methods as described (J. A. Montgomery and K. Howson, J. Med. Chem., 11:48-52 (1968)). The nucleoside and base were dissolved in serum free DMEM/F12 at a concentration of 1 mg/ml and added directly to 1 ml DMEM/F12 with 10% fetal bovine serum at the concentrations described below in order to cover 1-2×10^5 cells/well.
Initial cytopathic effects due to MeP were observed within 24 hours (for example, rounding of cells, with some cells detaching from plate). Viable cells were counted 5 days following addition of drug. […] Trypan blue exclusion was used to confirm viability in cells retaining recognizable structure at all concentrations studied. […] If the toxicity of MeP-dR is due to very low levels of liberation of MeP by human PNP, then combination with selective inhibitors of human PNP could prevent this toxicity.

Mel-1 cells = assay: Wild type melanoma cell viability; format: cell-based, human; settings: concentrations as high as 50 μg/ml, five days
[3] = tested on: T-84 colon carcinoma cells; assay: Killing of T-84 cells transfected with SV-PNP (DOTAP/DOPE); format: cell-based, human; settings: 30 μg/ml, day 6
Excerpt: as §1, §2

SMILES: Cc1ncnc2c1ncn2[C@H]1C[C@H](O)[C@@H](CO)O1 [MeP-dR, 9-(β-D-2-deoxyerythropentofuranosyl)-6-methylpurine]
- Effect on growth of wild-type 16/C tumors [1]: only a small effect on tumor growth
- MeP-dR converted to MeP (E. coli PNP; extracts of E. coli PNP transfected T-84 cells, 100 μM, 24 hours, 25° C.): Approximately 24%
- MeP-dR converted to MeP (E. coli PNP; extracts of LacZ transfected T-84 cells): no conversion occurred
- Killing of Mel-1 cells transfected with SV-PNP (Mel-1 melanoma cells): susceptible to killing
- Killing of Mel-1 cells transfected with Tyr-PNP (Mel-1 melanoma cells): susceptible to killing
- Toxicity to cells that were not transfected ([2]; 160 μM): minimally toxic
- Cells killed ([2]; 200 and 400 μM): less than half of the cells were killed
- Cell death ([2]; lower concentrations): did not cause any appreciable cell death
- Effect on Mel-1 cells (Mel-1 cells): unaffected
- Killing of T-84 cells transfected with SV-PNP [3]: susceptible to killing
